Measurements as given in publication PMC11078827, “Characterization and functional evidence for Orf2 of Streptomyces sp. 139 as a novel dipeptidase E” (Applied Microbiology and Biotechnology, 2024).

B1: Orf2 (Streptomyces tendae) (protein)
chain: MTSREPTIVATSGGHRVGTRTRVMFDALVHHAVDLSGVHGRRPRVMYVGTAIGDAEHFTARMTEAARIAGFDLTPLHLFPMPNVEDVEATVLDQDVVWVMGGSVANLLAVWRVHGLDGVMRRAWQAGVVLSGVSAGSLCWFEGGATDSFGPELRPLTNALGLLPYGNGVHYDTDEGRRPLTHRLVADGTLPTAHCTDDGVGLVYRGTELVEAVAEIPGKGAYLVRREGDEAVEERIEPRMLTVPSTS
notes: full-length orf2 (744 bp) in pET30a(+), His-tagged (mutants in pET28a), E. coli BL21(DE3), Ni-NTA

Experiments:
Orf2 [1] = target: T1, Orf2 (Streptomyces tendae, UniProt A0ABX5ZPB3, H170A); assay: absorbance at […] nm, activity assay; format: biochemical; settings: 50 mM imidazole pH 7.5, 40 °C; substrate of the standard assay, not named again for the mutants
T1 construct: gene F3L20_11885; full-length orf2 (744 bp) in pET30a(+), His-tagged (mutants in pET28a), E. coli BL21(DE3), Ni-NTA
T1 sequence (A0ABX5ZPB3 entry or part of it H170A): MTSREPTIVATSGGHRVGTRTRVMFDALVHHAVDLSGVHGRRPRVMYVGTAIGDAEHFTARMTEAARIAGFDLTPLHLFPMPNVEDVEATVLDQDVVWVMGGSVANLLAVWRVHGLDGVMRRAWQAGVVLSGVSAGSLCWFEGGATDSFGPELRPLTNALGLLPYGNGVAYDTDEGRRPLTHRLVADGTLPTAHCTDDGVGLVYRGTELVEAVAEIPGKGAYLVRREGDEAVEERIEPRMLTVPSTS

Orf2 [2] = target: T2, Orf2 (Streptomyces tendae, UniProt A0ABX5ZPB3, D198A); assay: absorbance at […] nm, activity assay; format: biochemical; settings: 50 mM imidazole pH 7.5, 40 °C; substrate of the standard assay, not named again for the mutants
T2 construct: gene F3L20_11885; full-length orf2 (744 bp) in pET30a(+), His-tagged (mutants in pET28a), E. coli BL21(DE3), Ni-NTA
T2 sequence (A0ABX5ZPB3 entry or part of it D198A): as the sequence (A0ABX5ZPB3 entry or part of it H170A) above, with A170H, D198A counted along it

Orf2 [3] = target: T3, Orf2 (Streptomyces tendae, UniProt A0ABX5ZPB3, S134A); assay: absorbance at […] nm, activity assay; format: biochemical; settings: 50 mM imidazole pH 7.5, 40 °C; substrate of the standard assay, not named again for the mutants
T3 construct: gene F3L20_11885; full-length orf2 (744 bp) in pET30a(+), His-tagged (mutants in pET28a), E. coli BL21(DE3), Ni-NTA
T3 sequence (A0ABX5ZPB3 entry or part of it S134A): as the sequence (A0ABX5ZPB3 entry or part of it H170A) above, with S134A, A170H counted along it

Orf2 [4] = target: T4, Orf2 (Streptomyces tendae, UniProt A0ABX5ZPB3, D147A); assay: absorbance at […] nm, activity assay; format: biochemical; settings: 50 mM imidazole pH 7.5, 40 °C; substrate of the standard assay, not named again for the mutants
T4 construct: gene F3L20_11885; full-length orf2 (744 bp) in pET30a(+), His-tagged (mutants in pET28a), E. coli BL21(DE3), Ni-NTA
T4 sequence (A0ABX5ZPB3 entry or part of it D147A): as the sequence (A0ABX5ZPB3 entry or part of it H170A) above, with D147A, A170H counted along it

purified protein = substrate: N[C@@H](CC(=O)O)C(=O)Nc1ccc([N+](=O)[O-])cc1; assay: purified protein; format: biochemical, Streptomyces tendae; settings: 50 mM imidazole pH 7.5, 40 °C, 10 min, substrate 3.91-500 μM, hydrolysis of chromogenic substrate

Molecule	absorbance at 405 nm, activity assay (Orf2 [1])	absorbance at 405 nm, activity assay (Orf2 [2])	absorbance at 405 nm, activity assay (Orf2 [3])	absorbance at 405 nm, activity assay (Orf2 [4])	Km (purified protein) [µM]	kcat (purified protein) [s⁻¹]
N[C@@H](CC(=O)O)C(=O)Nc1ccc([N+](=O)[O-])cc1 [Asp-ρNA]	all of these mutant proteins lost their activity (data not shown)	all of these mutant proteins lost their activity (data not shown)	all of these mutant proteins lost their activity (data not shown)	all of these mutant proteins lost their activity (data not shown)		
B1					1709	5.628
